Drawing on US9617283B2, “Bicyclic heterocycle compounds and their uses in therapy” (ASTEX THERAPEUTICS LIMITED, priority 2012, dated 2017), this text covers EC50 for 15 compounds.

The test system of the assay is EVSA-T (human breast carcinoma). The experiment in a line: Anti-proliferative activity, Alamar Blue assay, EVSA-T. Format: cell-based. Background: The colour change of resazurin is a common sign of viable cells or microbes.
Setting [1] is: Homo sapiens, EVSA-T, 72 h, EVSA-T cell line, 72 hours, Alamar Blue, read-out: EVSA-T prolif.
Where [2] appears, read: Homo sapiens, EVSA-T, read-out: EC50 in EVSA-T cell line assays.
The mark [3] stands for this setting: EVSA-T cell line, 72 hours, Alamar Blue, dihydrochloride, read-out: EVSA-T prolif.
Setting [4] is: Homo sapiens, EVSA-T cell line, 72 hours, Alamar Blue, read-out: EVSA-T prolif.

Molecules are shown by their SMILES. Counter-ions that a name gives are not always drawn. Like-named read-outs stand apart in the source and are kept apart here.

Experimental: Anti-Proliferative Activity
The method is based on the ability of viable cells to reduce resazurin to its fluorescent product resorufin. For each proliferation assay cells are plated onto 96 well plates and allowed to recover for 16 hours prior to the addition of inhibitor compounds (in 0.1% DMSO v/v) for a further 72 hours. […] The anti-proliferative activities of compounds of the invention can be determined by measuring the ability of the compounds to inhibit growth in 3 cancer cell lines: • EVSA-T (human breast carcinoma) DSMZ cat. no.

Turning to `CCC1CC(=O)N(C[C@H]2CN[C@H](C)CN2CC(=O)N2CC(C)(C)c3cnc(Cc4ccc(F)cc4F)cc32)C1` (single isomer, unassigned) [Example 83, (4R or 4S)-1-{[(2R,5R)-1-(2-{6-[(2,4-Difluorophenyl)methyl]-3,3-dimethyl-1H,2H,3H-pyrrolo[3,2-c]pyridin-1-yl}-2-oxoethyl)-5-methylpiperazin-2-yl]methyl}-4-ethylpyrrolidin-2-one dihydrochloride], the EC50 reads like this: under setting [1], 1.1 nM; under setting [2], less than 1000 nM.

For the compound `C[C@H]1CC(=O)N(C[C@H]2CN[C@H](C)CN2CC(=O)N2CC(C)(C)c3nnc(Cc4ccc(F)cc4F)cc32)C1` [Example 46, (4S)-1-{[(2R,5R)-1-(2-{3-[(2,4-Difluorophenyl)methyl]-7,7-dimethyl-5H,6H,7H-pyrrolo[3,2-c]pyridazin-5-yl}-2-oxoethyl)-5-methylpiperazin-2-yl]methyl}-4-methylpyrrolidin-2-one dihydrochloride], the EC50 reads like this: under setting [1], 2.3 nM; under setting [2], less than 1000 nM. The corresponding values for `C[C@@H]1CN(CC(=O)N2CC(C)(C)c3ncc(Cc4ccc(F)cc4)cc32)[C@@H](CN2CC(=O)NCC2=O)CN1` [Example 22, 1-{[(2R,5R)-1-(2-{6-[(4-Fluorophenyl)methyl]-3,3-dimethyl-1H,2H,3H-pyrrolo[3,2-b]pyridin-1-yl}-2-oxoethyl)-5-methylpiperazin-2-yl]methyl}piperazine-2,5-dione] are 9.2 nM and less than 1000 nM. On the same counts, the results for `C[C@@H]1CN(CC(=O)N2CC(C)(C)c3ncc(Cc4ccc(F)cc4)cc32)[C@@H](CN2C[C@@H](C)OC2=O)CN1` [Example 9, (5R)-3-{[(2R,5R)-1-(2-{6-[(4-Fluorophenyl)methyl]-3,3-dimethyl-1H,2H,3H-pyrrolo[3,2-b]pyridin-1-yl}-2-oxoethyl)-5-methylpiperazin-2-yl]methyl}-5-methyl-1,3-oxazolidin-2-one] are 5.9 nM and less than 1000 nM. `CCC1CC(=O)N(C[C@H]2CN[C@H](C)CN2CC(=O)N2CC(C)(C)c3cnc(Cc4ccc(F)cc4F)cc32)C1` (single isomer, unassigned) [Example 87, (4R or 4S)-1-{[(2R,5R)-1-(2-{6-[(2,4-Difluorophenyl)methyl]-3,3-dimethyl-1H,2H,3H-pyrrolo[3,2-c]pyridin-1-yl}-2-oxoethyl)-5-methylpiperazin-2-yl]methyl}-4-ethylpyrrolidin-2-one dihydrochloride]: the EC50 under setting [3] was 1.2 nM. Take `C[C@@H]1CN(CC(=O)N2CC(C)(C)c3ncc(Cc4ccc(F)cc4)cc32)[C@@H](CN2CCC(F)(F)C2=O)CN1` [Example 11, 3,3-Difluoro-1-{[(2R,5R)-1-(2-{6-[(4-fluorophenyl)methyl]-3,3-dimethyl-1H,2H,3H-pyrrolo[3,2-b]pyridin-1-yl}-2-oxoethyl)-5-methylpiperazin-2-yl]methyl}pyrrolidin-2-one dihydrochloride]: the EC50 under setting [4] is 4.3 nM.

As to `C[C@@H]1CN(CC(=O)N2CC(C)(C)c3ncc(Cc4ccc(F)cc4F)cc32)[C@@H](CN2Cc3ncccc3C2=O)CN1` [Example 62, 6-{[(2R,5R)-1-(2-{6-[(2,4-Difluorophenyl)methyl]-3,3-dimethyl-1H,2H,3H-pyrrolo[3,2-b]pyridin-1-yl}-2-oxoethyl)-5-methylpiperazin-2-yl]methyl}-5H,6H,7H-pyrrolo[3,4-b]pyridin-5-one], the EC50 under setting [2] is less than 1000 nM. With `CCCC(F)(F)c1cc2c(nn1)C(C)(C)CN2C(=O)CN1C[C@@H](C)NC[C@@H]1CN1C(=O)CO[C@@H](C)[C@H]1C` [Example 58, (5R,6S)-4-{[(2R,5R)-1-{2-[3-(1,1-Difluorobutyl)-7,7-dimethyl-5H,6H,7H-pyrrolo[3,2-]pyridazin-5-yl]-2-oxoethyl}-5-methylpiperazin-2-yl]methyl}-5,6-dimethylmorpholin-3-one], the EC50 under setting [2] was less than 1000 nM. Same read-out and setting: next, `C[C@@H]1CN(CC(=O)N2CC(C)(C)c3nnc(Cc4ccc(F)cc4)cc32)[C@@H](CN2Cc3ncccc3C2=O)CN1` [Example 65, 6-{[(2R,5R)-1-(2-{3-[(4-Fluorophenyl)methyl]-7,7-dimethyl-5H,6H,7H-pyrrolo[3,2-c]pyridazin-5-yl}-2-oxoethyl)-5-methylpiperazin-2-yl]methyl}-5H,6H,7H-pyrrolo[3,4-b]pyridin-5-one]: less than 1000 nM.

Turning to `CCCC(F)(F)c1cc2c(cn1)C(C)(C)CN2C(=O)CN1C[C@@H](C)NC[C@@H]1CN1CC(CC)OCC1=O` (single isomer, unassigned) [Example 89, 4-{[(2R,5R)-1-{2-[6-(1,1-Difluorobutyl)-3,3-dimethyl-1H,2H,3H-pyrrolo[3,2-c]pyridin-1-yl]-2-oxoethyl}-5-methylpiperazin-2-yl]methyl}-(R or S)-6-ethylmorpholin-3-one dihydrochloride], the EC50 under setting [3] was 6.5 nM. On the same count and under the same terms, the figure for `CCC1CC(=O)N(C[C@H]2CN[C@H](C)CN2CC(=O)N2CC(C)(C)c3ncc(Cc4ccc(F)cc4)cc32)C1` (single isomer, unassigned) [Example 86, (4R or 4S)-4-Ethyl-1-{[(2R,5R)-1-(2-{6-[(4-fluorophenyl)methyl]-3,3-dimethyl-1H,2H,3H-pyrrolo[3,2-b]pyridin-1-yl}-2-oxoethyl)-5-methylpiperazin-2-yl]methyl}pyrrolidin-2-one dihydrochloride] is 1.7 nM. Regarding `CCCC(F)(F)c1cc2c(nn1)C(C)(C)CN2C(=O)CN1C[C@@H](C)NC[C@@H]1CN1CC(C)(C)CC1=O` [Example 55, 1-{[(2R,5R)-1-{2-[3-(1,1-Difluorobutyl)-7,7-dimethyl-5H,6H,7H-pyrrolo[3,2-c]pyridazin-5-yl]-2-oxoethyl}-5-methylpiperazin-2-yl]methyl}-4,4-dimethylpyrrolidin-2-one], the EC50 under setting [2] was less than 1000 nM.

For the compound `C[C@@H]1CN(CC(=O)N2CC(C)(C)c3ncc(Cc4ccc(F)cc4)cc32)[C@@H](CN2Cc3cccnc3C2=O)CN1` [Example 95, 6-{[(2R,5R)-1-(2-{6-[(4-Fluorophenyl)methyl]-3,3-dimethyl-1H,2H,3H-pyrrolo[3,2-b]pyridin-1-yl}-2-oxoethyl)-5-methylpiperazin-2-yl]methyl}-5H,6H,7H-pyrrolo[3,4-b]pyridin-7-one dihydrochloride], the EC50 under setting [4] is 0.71 nM. Turning to `C[C@@H]1CN(CC(=O)N2CC(C)(C)c3nnc(Cc4ccc(F)cc4F)cc32)[C@@H](CN2C[C@H](C)OCC2=O)CN1` [Example 52, (6S)-4-{[(2R,5R)-1-(2-{3-[(2,4-Difluorophenyl)methyl]-7,7-dimethyl-5H,6H,7H-pyrrolo[3,2-c]pyridazin-5-yl}-2-oxoethyl)-5-methylpiperazin-2-yl]methyl}-6-methylmorpholin-3-one], the EC50 under setting [2] is less than 1000 nM.

Consider `C[C@@H]1CN(CC(=O)N2CC(C)(C)c3ncc(Cc4ccc(F)cc4)cc32)[C@@H](CN2CCOCCC2=O)CN1` [Example 2, 4-{[(2R,5R)-1-(2-{6-[(4-Fluorophenyl)methyl]-3,3-dimethyl-1H,2H,3H-pyrrolo[3,2-b]pyridin-1-yl}-2-oxoethyl)-5-methylpiperazin-2-yl]methyl}-1,4-oxazepan-5-one hydrochloride], for which the EC50 under setting [1] is 6.5 nM and the EC50 under setting [2] was less than 1000 nM.
